Measured values as given in PMC5224920, “Assessing the mechanism and therapeutic potential of modulators of the human Mediator complex-associated protein kinases” (eLife, 2016).

System: 12 single or co-culture in vitro tissue models of primary cells
Experiment: Culture/co-culture cell model panel, extracellular biomarkers (DiscoveRx); as to CCL2/MCP-1: reference of the scale not given here; as to CD141/Thrombomodulin: reference of the scale not given here; as to CD142/Tissue Factor: reference of the scale not given here; as to CD38: reference of the scale not given here; as to CD40: reference of the scale not given here; as to CD69: reference of the scale not given here; as to CXCL8/IL-8: reference of the scale not given here; as to CXCL9/MIG: reference of the scale not given here; as to IL-1alpha: reference of the scale not given here; as to M-CSF: reference of the scale not given here; as to PBMC Cytotoxicity: reference of the scale not given here; as to Proliferation: reference of the scale not given here; as to SRB: reference of the scale not given here; as to sPGE2: reference of the scale not given here; as to sTNF-alpha: reference of the scale not given here
Type: cell-based, human

For `Cc1n[nH]c2ncc(C(=O)N3CCC[C@H]3c3ccc(Cl)cc3)cc12` [CMPD4], the IL-1alpha (LPS Huvec+PBMC, 1.11E3 nM) was 0.016, the M-CSF (LPS Huvec+PBMC, 1.11E3 nM) was 0.016 and the SRB (LPS Huvec+PBMC, 1.11E3 nM) was -0.126. It also gave a sPGE2 (LPS Huvec+PBMC, 1.11E3 nM) of 0.239, a sTNF-alpha (LPS Huvec+PBMC, 1.11E3 nM) of 0.133 and a CCL2/MCP-1 (LPS Huvec+PBMC, 1.23E2 nM) of -0.026. The CD40 (LPS Huvec+PBMC, 1.23E2 nM) was -0.152, the CD62E/E-Selectin (LPS Huvec+PBMC, 1.23E2 nM) was 0.006 and the CD69 (LPS Huvec+PBMC, 1.23E2 nM) was 0.00187. The CD106/VCAM-1 (LPS Huvec+PBMC, 1.23E2 nM) was 0.093, the CD141/Thrombomodulin (LPS Huvec+PBMC, 1.23E2 nM) was 0.087 and the “CD142/Tissue Factor” value (LPS Huvec+PBMC, 1.23E2 nM) was 0.139. For the same compound, the CXCL8/IL-8 (LPS Huvec+PBMC, 1.23E2 nM) was -0.075, the IL-1alpha (LPS Huvec+PBMC, 1.23E2 nM) was 0.044 and the M-CSF (LPS Huvec+PBMC, 1.23E2 nM) was -0.000401. The SRB (LPS Huvec+PBMC, 1.23E2 nM) was -0.089, the sPGE2 (LPS Huvec+PBMC, 1.23E2 nM) was 0.245 and the sTNF-alpha (LPS Huvec+PBMC, 1.23E2 nM) was 0.048. For the same compound, the CCL2/MCP-1 (LPS Huvec+PBMC, 1.37E1 nM) was 0.005, the CD40 (LPS Huvec+PBMC, 1.37E1 nM) was -0.187 and the CD62E/E-Selectin (LPS Huvec+PBMC, 1.37E1 nM) was -0.020. It also gave a CD69 (LPS Huvec+PBMC, 1.37E1 nM) of -0.009, a CD106/VCAM-1 (LPS Huvec+PBMC, 1.37E1 nM) of 0.066 and a CD141/Thrombomodulin (LPS Huvec+PBMC, 1.37E1 nM) of 0.056. The “CD142/Tissue Factor” value (LPS Huvec+PBMC, 1.37E1 nM) was 0.073, the CXCL8/IL-8 (LPS Huvec+PBMC, 1.37E1 nM) was -0.037 and the IL-1alpha (LPS Huvec+PBMC, 1.37E1 nM) was -0.072. The M-CSF (LPS Huvec+PBMC, 1.37E1 nM) was 0.00323, the SRB (LPS Huvec+PBMC, 1.37E1 nM) was -0.040 and the sPGE2 (LPS Huvec+PBMC, 1.37E1 nM) was 0.171. The sTNF-alpha (LPS Huvec+PBMC, 1.37E1 nM) was 0.038, the CCL2/MCP-1 (LPS Huvec+PBMC, 3.33E3 nM) was -0.067 and the CD40 (LPS Huvec+PBMC, 3.33E3 nM) was -0.112. The CD62E/E-Selectin (LPS Huvec+PBMC, 3.33E3 nM) was 0.00461, the CD69 (LPS Huvec+PBMC, 3.33E3 nM) was 0.059 and the CD106/VCAM-1 (LPS Huvec+PBMC, 3.33E3 nM) was 0.096. For the same compound, the CD141/Thrombomodulin (LPS Huvec+PBMC, 3.33E3 nM) was 0.075, the “CD142/Tissue Factor” value (LPS Huvec+PBMC, 3.33E3 nM) was 0.108 and the CXCL8/IL-8 (LPS Huvec+PBMC, 3.33E3 nM) was -0.193. For the same compound, the IL-1alpha (LPS Huvec+PBMC, 3.33E3 nM) was 0.066, the M-CSF (LPS Huvec+PBMC, 3.33E3 nM) was 0.023 and the SRB (LPS Huvec+PBMC, 3.33E3 nM) was -0.130. For the same compound, the sPGE2 (LPS Huvec+PBMC, 3.33E3 nM) was 0.179, the sTNF-alpha (LPS Huvec+PBMC, 3.33E3 nM) was 0.057 and the CCL2/MCP-1 (LPS Huvec+PBMC, 3.70E2 nM) was -0.029. For the same compound, the CD40 (LPS Huvec+PBMC, 3.70E2 nM) was -0.162, the CD62E/E-Selectin (LPS Huvec+PBMC, 3.70E2 nM) was -0.010 and the CD69 (LPS Huvec+PBMC, 3.70E2 nM) was 0.00559. The CD106/VCAM-1 (LPS Huvec+PBMC, 3.70E2 nM) was 0.093, the CD141/Thrombomodulin (LPS Huvec+PBMC, 3.70E2 nM) was 0.092 and the “CD142/Tissue Factor” value (LPS Huvec+PBMC, 3.70E2 nM) was 0.144. It also gave a CXCL8/IL-8 (LPS Huvec+PBMC, 3.70E2 nM) of -0.137, an IL-1alpha (LPS Huvec+PBMC, 3.70E2 nM) of 0.044 and a M-CSF (LPS Huvec+PBMC, 3.70E2 nM) of -0.012. The SRB (LPS Huvec+PBMC, 3.70E2 nM) was -0.096, the sPGE2 (LPS Huvec+PBMC, 3.70E2 nM) was 0.189 and the sTNF-alpha (LPS Huvec+PBMC, 3.70E2 nM) was 0.099. The CCL2/MCP-1 (LPS Huvec+PBMC, 4.12E1 nM) was -0.00282, the CD40 (LPS Huvec+PBMC, 4.12E1 nM) was -0.180 and the CD62E/E-Selectin (LPS Huvec+PBMC, 4.12E1 nM) was -0.032. It also gave a CD69 (LPS Huvec+PBMC, 4.12E1 nM) of 0.017, a CD106/VCAM-1 (LPS Huvec+PBMC, 4.12E1 nM) of 0.090 and a CD141/Thrombomodulin (LPS Huvec+PBMC, 4.12E1 nM) of 0.090. The “CD142/Tissue Factor” value (LPS Huvec+PBMC, 4.12E1 nM) was 0.115, the CXCL8/IL-8 (LPS Huvec+PBMC, 4.12E1 nM) was -0.044 and the IL-1alpha (LPS Huvec+PBMC, 4.12E1 nM) was 0.017. The M-CSF (LPS Huvec+PBMC, 4.12E1 nM) was -0.0023, the SRB (LPS Huvec+PBMC, 4.12E1 nM) was -0.053 and the sPGE2 (LPS Huvec+PBMC, 4.12E1 nM) was 0.230. For the same compound, the sTNF-alpha (LPS Huvec+PBMC, 4.12E1 nM) was 0.081, the CCL2/MCP-1 (LPS Huvec+PBMC, 4.57E0 nM) was -0.00276 and the CD40 (LPS Huvec+PBMC, 4.57E0 nM) was -0.174. It also gave a CD62E/E-Selectin (LPS Huvec+PBMC, 4.57E0 nM) of -0.017, a CD69 (LPS Huvec+PBMC, 4.57E0 nM) of 0.019 and a CD106/VCAM-1 (LPS Huvec+PBMC, 4.57E0 nM) of 0.051. For the same compound, the CD141/Thrombomodulin (LPS Huvec+PBMC, 4.57E0 nM) was 0.058, the “CD142/Tissue Factor” value (LPS Huvec+PBMC, 4.57E0 nM) was 0.062 and the CXCL8/IL-8 (LPS Huvec+PBMC, 4.57E0 nM) was -0.024. For the same compound, the IL-1alpha (LPS Huvec+PBMC, 4.57E0 nM) was -0.00758, the M-CSF (LPS Huvec+PBMC, 4.57E0 nM) was -0.005 and the SRB (LPS Huvec+PBMC, 4.57E0 nM) was -0.016. The sPGE2 (LPS Huvec+PBMC, 4.57E0 nM) was 0.124, the sTNF-alpha (LPS Huvec+PBMC, 4.57E0 nM) was -0.057 and the CCL2/MCP-1 (SAg, 1.00E4 nM) was -0.077. For the same compound, the CD38 (SAg, 1.00E4 nM) was -0.031, the CD40 (SAg, 1.00E4 nM) was -0.104 and the CD62E/E-Selectin (SAg, 1.00E4 nM) was 0.099. For the same compound, the CD69 (SAg, 1.00E4 nM) was 0.140, the CXCL8/IL-8 (SAg, 1.00E4 nM) was -0.277 and the CXCL9/MIG (SAg, 1.00E4 nM) was -0.047. The “PBMC Cytotoxicity” value (SAg, 1.00E4 nM) was 0.013, the Proliferation (SAg, 1.00E4 nM) was -0.003 and the SRB (SAg, 1.00E4 nM) was -0.133. The CCL2/MCP-1 (SAg, 1.11E3 nM) was -0.125, the CD38 (SAg, 1.11E3 nM) was -0.063 and the CD40 (SAg, 1.11E3 nM) was -0.103. For the same compound, the CD62E/E-Selectin (SAg, 1.11E3 nM) was 0.135, the CD69 (SAg, 1.11E3 nM) was 0.166 and the CXCL8/IL-8 (SAg, 1.11E3 nM) was -0.272. The CXCL9/MIG (SAg, 1.11E3 nM) was -0.097, the “PBMC Cytotoxicity” value (SAg, 1.11E3 nM) was 0.007 and the Proliferation (SAg, 1.11E3 nM) was -0.000932. For the same compound, the SRB (SAg, 1.11E3 nM) was -0.168, the CCL2/MCP-1 (SAg, 1.23E2 nM) was -0.092 and the CD38 (SAg, 1.23E2 nM) was -0.087. It also gave a CD40 (SAg, 1.23E2 nM) of -0.136, a CD62E/E-Selectin (SAg, 1.23E2 nM) of 0.130 and a CD69 (SAg, 1.23E2 nM) of 0.140. The CXCL8/IL-8 (SAg, 1.23E2 nM) was -0.108, the CXCL9/MIG (SAg, 1.23E2 nM) was -0.076 and the “PBMC Cytotoxicity” value (SAg, 1.23E2 nM) was -0.032. The Proliferation (SAg, 1.23E2 nM) was 0.030, the SRB (SAg, 1.23E2 nM) was -0.149 and the CCL2/MCP-1 (SAg, 1.37E1 nM) was -0.019. The CD38 (SAg, 1.37E1 nM) was -0.064, the CD40 (SAg, 1.37E1 nM) was -0.117 and the CD62E/E-Selectin (SAg, 1.37E1 nM) was 0.101. For the same compound, the CD69 (SAg, 1.37E1 nM) was 0.100, the CXCL8/IL-8 (SAg, 1.37E1 nM) was -0.060 and the CXCL9/MIG (SAg, 1.37E1 nM) was -0.029. The “PBMC Cytotoxicity” value (SAg, 1.37E1 nM) was 0.005, the Proliferation (SAg, 1.37E1 nM) was -0.021 and the SRB (SAg, 1.37E1 nM) was -0.058. It also gave a CCL2/MCP-1 (SAg, 3.33E3 nM) of -0.104, a CD38 (SAg, 3.33E3 nM) of -0.056 and a CD40 (SAg, 3.33E3 nM) of -0.138. The CD62E/E-Selectin (SAg, 3.33E3 nM) was 0.125, the CD69 (SAg, 3.33E3 nM) was 0.148 and the CXCL8/IL-8 (SAg, 3.33E3 nM) was -0.259. For the same compound, the CXCL9/MIG (SAg, 3.33E3 nM) was -0.085, the “PBMC Cytotoxicity” value (SAg, 3.33E3 nM) was -0.00278 and the Proliferation (SAg, 3.33E3 nM) was -0.016. It also gave an SRB (SAg, 3.33E3 nM) of -0.179, a CCL2/MCP-1 (SAg, 3.70E2 nM) of -0.123 and a CD38 (SAg, 3.70E2 nM) of -0.080. For the same compound, the CD40 (SAg, 3.70E2 nM) was -0.137, the CD62E/E-Selectin (SAg, 3.70E2 nM) was 0.119 and the CD69 (SAg, 3.70E2 nM) was 0.128. The CXCL8/IL-8 (SAg, 3.70E2 nM) was -0.284, the CXCL9/MIG (SAg, 3.70E2 nM) was -0.085 and the “PBMC Cytotoxicity” value (SAg, 3.70E2 nM) was -0.040. It also gave a Proliferation (SAg, 3.70E2 nM) of -0.011, an SRB (SAg, 3.70E2 nM) of -0.146 and a CCL2/MCP-1 (SAg, 4.12E1 nM) of -0.056. For the same compound, the CD38 (SAg, 4.12E1 nM) was -0.062, the CD40 (SAg, 4.12E1 nM) was -0.124 and the CD62E/E-Selectin (SAg, 4.12E1 nM) was 0.124. It also gave a CD69 (SAg, 4.12E1 nM) of 0.126, a CXCL8/IL-8 (SAg, 4.12E1 nM) of -0.119 and a CXCL9/MIG (SAg, 4.12E1 nM) of -0.046. The “PBMC Cytotoxicity” value (SAg, 4.12E1 nM) was -0.001, the Proliferation (SAg, 4.12E1 nM) was 0.000938 and the SRB (SAg, 4.12E1 nM) was -0.102. The CCL2/MCP-1 (SAg, 4.57E0 nM) was 0.040, the CD38 (SAg, 4.57E0 nM) was -0.052 and the CD40 (SAg, 4.57E0 nM) was -0.084. It also gave a CD62E/E-Selectin (SAg, 4.57E0 nM) of 0.070, a CD69 (SAg, 4.57E0 nM) of 0.062 and a CXCL8/IL-8 (SAg, 4.57E0 nM) of 0.007. For the same compound, the CXCL9/MIG (SAg, 4.57E0 nM) was -0.031, the “PBMC Cytotoxicity” value (SAg, 4.57E0 nM) was 0.015 and the Proliferation (SAg, 4.57E0 nM) was 0.009. The SRB (SAg, 4.57E0 nM) was 0.029.
